Values quoted from earlier work as cited in PMC5580352 (Journal of medicinal chemistry, 2017).

Conditions: 1 week of administration of 20 mg/kg

Compound: CCCC[S+]([O-])c1sc2nc(-c3cccs3)cc(-c3ccccc3)c2c1N (stereo not shown) [Compound 1, 2-(butylsulfinyl)-4-phenyl-6-(thiophen-2-yl)thieno[2,3-b]pyridin-3-amine]
- adverse effects: no adverse effects on weight, activity, blood counts or blood chemistry
